# Laboratory results taken from the supplement of paper PMC10307832.
# Columns and labels:
# Assay in all cases: relative viability (nuclei count vs DMSO), 5 days (fraction); higher = more cells survive
# NCI-H2228 = test system: NCI-H2228
# Procedure, shortened: (§1)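 A single step with final 0.05% Triton X-100, 1% formaldehyde and 1 ug/ml Hoechst fixed the cells and stained nuclei 5 days after treatment. Lung cancer cell lines in 1536-well plates had been treated by pin tool the day after seeding with one drug alone or a fixed anchor-drug dose plus five library-drug doses (not always all listed) in √10 steps, and nuclei were counted on 4× images. Relative viability is the ratio of nuclei in treated wells to nuclei in vehicle wells, taken as the median of duplicate plates.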
# COR-L 105 = test system: COR-L 105
# Procedure, shortened: as §1
# HOP-62 = test system: HOP-62
# Procedure, shortened: as §1
# NCI-H1755 = test system: NCI-H1755
# Procedure, shortened: as §1
# PC-14 = test system: PC-14
# Procedure, shortened: as §1
# NCI-H2170 = test system: NCI-H2170
# Procedure, shortened: as §1
# UMC-11 = test system: UMC-11
# Procedure, shortened: as §1
# EKVX = test system: EKVX
# Procedure, shortened: as §1
# NCI-H1793 = test system: NCI-H1793
# Procedure, shortened: as §1
# NCI-H1734 = test system: NCI-H1734
# Procedure, shortened: as §1
# NCI-H2342 = test system: NCI-H2342
# Procedure, shortened: as §1
# SK-MES-1 = test system: SK-MES-1
# Procedure, shortened: as §1
# NCI-H838 = test system: NCI-H838
# Procedure, shortened: as §1
# NCI-H647 = test system: NCI-H647
# Procedure, shortened: as §1
# NCI-H2347 = test system: NCI-H2347
# Procedure, shortened: as §1
# HCC-15 = test system: HCC-15
# Procedure, shortened: as §1
# NCI-H2009 = test system: NCI-H2009
# Procedure, shortened: as §1
# NCI-H1395 = test system: NCI-H1395
# Procedure, shortened: as §1
# NCI-H1355 = test system: NCI-H1355
# Procedure, shortened: as §1
# COR-L23 = test system: COR-L23
# Procedure, shortened: as §1
# HARA = test system: HARA
# Procedure, shortened: as §1
# NCI-H1993 = test system: NCI-H1993
# Procedure, shortened: as §1
# NCI-H358 = test system: NCI-H358
# Procedure, shortened: as §1
compound,measurement,setting,value
Oc1nc(-c2ccc(C(F)(F)F)cc2)nc2c1CSCC2 [XAV939] + COc1cc2c(Oc3ccc(NC(=O)C4(C(=O)Nc5ccc(F)cc5)CC4)cc3F)ccnc2cc1OCCCN1CCOCC1 [Foretinib] (partner 0.25 µM),relative viability,NCI-H2228; first compound 0.08 µM,0.98
same,relative viability,NCI-H2228; first compound 0.253 µM,0.874
same,relative viability,NCI-H2228; first compound 0.8 µM,0.91
same,relative viability,NCI-H2228; first compound 2.53 µM,0.847
same,relative viability,COR-L 105; first compound 0.08 µM,1.17
same,relative viability,COR-L 105; first compound 0.253 µM,1.06
same,relative viability,COR-L 105; first compound 0.8 µM,1.14
same,relative viability,COR-L 105; first compound 2.53 µM,0.964
same,relative viability,HOP-62; first compound 0.08 µM,1.23
same,relative viability,HOP-62; first compound 0.253 µM,1.04
same,relative viability,HOP-62; first compound 0.8 µM,0.996
same,relative viability,HOP-62; first compound 2.53 µM,0.943
same,relative viability,NCI-H1755; first compound 0.08 µM,0.891
same,relative viability,NCI-H1755; first compound 0.253 µM,0.787
same,relative viability,NCI-H1755; first compound 0.8 µM,0.815
same,relative viability,NCI-H1755; first compound 2.53 µM,0.809
same,relative viability,PC-14; first compound 0.08 µM,0.945
same,relative viability,PC-14; first compound 0.253 µM,0.869
same,relative viability,PC-14; first compound 0.8 µM,0.885
same,relative viability,PC-14; first compound 2.53 µM,0.905
same,relative viability,NCI-H2170; first compound 0.08 µM,1.03
same,relative viability,NCI-H2170; first compound 0.253 µM,1.01
same,relative viability,NCI-H2170; first compound 0.8 µM,0.979
same,relative viability,NCI-H2170; first compound 2.53 µM,0.864
same,relative viability,UMC-11; first compound 0.08 µM,1.13
same,relative viability,UMC-11; first compound 0.253 µM,0.873
same,relative viability,UMC-11; first compound 0.8 µM,0.978
same,relative viability,UMC-11; first compound 2.53 µM,0.8
same,relative viability,EKVX; first compound 0.08 µM,0.876
same,relative viability,EKVX; first compound 0.253 µM,0.628
same,relative viability,EKVX; first compound 0.8 µM,0.675
same,relative viability,EKVX; first compound 2.53 µM,0.793
same,relative viability,NCI-H1793; first compound 0.08 µM,0.846
same,relative viability,NCI-H1793; first compound 0.253 µM,0.558
same,relative viability,NCI-H1793; first compound 0.8 µM,0.63
same,relative viability,NCI-H1793; first compound 2.53 µM,0.454
same,relative viability,NCI-H1734; first compound 0.08 µM,0.953
same,relative viability,NCI-H1734; first compound 0.253 µM,0.784
same,relative viability,NCI-H1734; first compound 0.8 µM,0.913
same,relative viability,NCI-H1734; first compound 2.53 µM,0.829
same,relative viability,NCI-H2342; first compound 0.08 µM,1.08
same,relative viability,NCI-H2342; first compound 0.253 µM,0.936
same,relative viability,NCI-H2342; first compound 0.8 µM,0.932
same,relative viability,NCI-H2342; first compound 2.53 µM,0.529
same,relative viability,SK-MES-1; first compound 0.08 µM,1.02
same,relative viability,SK-MES-1; first compound 0.253 µM,0.841
same,relative viability,SK-MES-1; first compound 0.8 µM,0.864
same,relative viability,SK-MES-1; first compound 2.53 µM,0.82
same,relative viability,NCI-H838; first compound 0.08 µM,1.01
same,relative viability,NCI-H838; first compound 0.253 µM,0.957
same,relative viability,NCI-H838; first compound 0.8 µM,0.931
same,relative viability,NCI-H838; first compound 2.53 µM,0.575
same,relative viability,NCI-H647; first compound 0.08 µM,1.21
same,relative viability,NCI-H647; first compound 0.253 µM,0.958
same,relative viability,NCI-H647; first compound 0.8 µM,0.991
same,relative viability,NCI-H647; first compound 2.53 µM,0.609
same,relative viability,NCI-H2347; first compound 0.08 µM,0.797
same,relative viability,NCI-H2347; first compound 0.253 µM,0.803
same,relative viability,NCI-H2347; first compound 0.8 µM,0.786
same,relative viability,NCI-H2347; first compound 2.53 µM,0.354
same,relative viability,HCC-15; first compound 0.08 µM,1.2
same,relative viability,HCC-15; first compound 0.253 µM,0.984
same,relative viability,HCC-15; first compound 0.8 µM,1.05
same,relative viability,HCC-15; first compound 2.53 µM,0.988
same,relative viability,NCI-H2009; first compound 0.08 µM,1.32
same,relative viability,NCI-H2009; first compound 0.253 µM,1.21
same,relative viability,NCI-H2009; first compound 0.8 µM,1.18
same,relative viability,NCI-H2009; first compound 2.53 µM,1.16
same,relative viability,NCI-H1395; first compound 0.08 µM,1.07
same,relative viability,NCI-H1395; first compound 0.253 µM,0.783
same,relative viability,NCI-H1395; first compound 0.8 µM,1
same,relative viability,NCI-H1395; first compound 2.53 µM,0.961
same,relative viability,NCI-H1355; first compound 0.08 µM,0.946
same,relative viability,NCI-H1355; first compound 0.253 µM,0.839
same,relative viability,NCI-H1355; first compound 0.8 µM,0.786
same,relative viability,NCI-H1355; first compound 2.53 µM,0.619
same,relative viability,COR-L23; first compound 0.08 µM,1.13
same,relative viability,COR-L23; first compound 0.253 µM,0.96
same,relative viability,COR-L23; first compound 0.8 µM,0.948
same,relative viability,COR-L23; first compound 2.53 µM,0.903
same,relative viability,HARA; first compound 0.08 µM,1.03
same,relative viability,HARA; first compound 0.253 µM,0.79
same,relative viability,HARA; first compound 0.8 µM,0.248
same,relative viability,HARA; first compound 2.53 µM,0.678
same,relative viability,NCI-H1993; first compound 0.08 µM,0.753
same,relative viability,NCI-H1993; first compound 0.253 µM,0.7
same,relative viability,NCI-H1993; first compound 0.8 µM,0.688
same,relative viability,NCI-H1993; first compound 2.53 µM,0.65
same,relative viability,NCI-H358; first compound 0.08 µM,0.722
same,relative viability,NCI-H358; first compound 0.253 µM,0.596
same,relative viability,NCI-H358; first compound 0.8 µM,0.622
same,relative viability,NCI-H358; first compound 2.53 µM,0.6
